Measurements: US8410105B2, “Pyridazinyl amine derivatives, the use thereof in the preparation of picorna virus inhibitors” (Institute of Pharmacology and Toxicology Academy of …, priority 2005, dated 2013)

How the values were obtained:
rhinovirus = assay: Ex vivo anti-rhinovirus screening: ACh-induced tension of rabbit tracheal rings exposed to rhinovirus; conditions: for Tension, average: drug 100 μg/ml plus rhinovirus, rabbit tracheal rings
Rhinovirus-3(HRV-3) [1] = assay: Therapeutic administration: drug added after viral infection of adherent HeLa cells, protection from CPE; assay type: cell-based; conditions: drug 100 ng/ml added 0.5 h after virus (about 100 TCID50), 33° C., three days, FIG. 2
Procedure: (§1) HeLa cells (self-preserved in the laboratory)
(§2) Rhinovirus-3(HRV-3) (ATCC: VR-1113)
Method: 500,000 cells were added into each well, incubated at 33° C. overnight for adherence, then viral dose at TCID50 value of about 100 was added, the culture medium was removed by absorption after 0.5 h, the drug was added into a 12-well plate at a concentration of 100 ng/ml, the total volume of the reaction system was 2 ml. After three days, when the virus control group presented 100% cytophagocytesis (CPE), the effects of the drug for preventing cells from being phagocytized were observed.

Rhinovirus-3(HRV-3) [2] = assay: Preventive administration: drug pre-mixed with virus, protection of HeLa cells from CPE; assay type: cell-based; conditions: drug 100 ng/ml, virus about 100 TCID50, 33° C., three days, FIG. 1
Procedure: as §1, §2
Principle: the drug and the virus were pre-mixed and incubated to block the procedure of viral uncoating and invasion into cells.
Methods: the drug at a concentration of 100 ng/ml was placed into a 12-well plate, then viral dose at TCID50 value of about 100 was added, after 0.5 h, 500,000 cells were added into each well, and incubated at 33° C. After three days, when the control group presented 100% cytopathic effect (CPE), the effects of the drug for preventing cells from being phagocytized were observed, and expressed as cell protection rate (%).

Compound: CCOC(=O)c1ccc(OCCN2CCN(c3cc(Cl)nnc3Cl)CC2)nc1 [Example 31, 6-{2-[4-(3,6-dichloro-pyridazin-4-yl)-piperazin-1-yl]-ethoxy}-nicotinic acid ethyl ester]
- Tension, average (rhinovirus; Ach concentration (log M) −3): 1.95 g
- Tension, average (rhinovirus; Ach concentration (log M) −3.7): 1.86 g
- Tension, average (rhinovirus; Ach concentration (log M) −4): 1.72 g
- Tension, average (rhinovirus; Ach concentration (log M) −4.3): 1.54 g
- Tension, average (rhinovirus; Ach concentration (log M) −4.7): 1.30 g
- Tension, average (rhinovirus; Ach concentration (log M) −5): 1.00 g
- Tension, average (rhinovirus; Ach concentration (log M) −5.3): 0.73 g
- Tension, average (rhinovirus; Ach concentration (log M) −5.7): 0.35 g
- Tension, average (rhinovirus; Ach concentration (log M) −6): 0.11 g
- Tension, average (rhinovirus; Ach concentration (log M) −7): 0.00 g
- effect on the rhinovirus-caused excessive increase of Ach-induced tracheal smooth muscular tension (rhinovirus; drug 100 μg/ml, FIG. 3): obviously inhibit the excessive increase of Ach-induced tracheal smooth muscular tension caused by rhinovirus
- effects of the drug for preventing cells from being phagocytized (Rhinovirus-3(HRV-3) [1]): better effects
- effects of the drug for preventing cells from being phagocytized, cell protection rate (Rhinovirus-3(HRV-3) [2]): better effects

Compound: 4-{2-[4-(3,6-dichloropyridazin-4-yl)-piperazin]-1-yl)-ethoxy]-benzoic acid isopropyl ester [Example 13]
- effects of the drug for preventing cells from being phagocytized, cell protection rate (Rhinovirus-3(HRV-3) [2]): better effects

Compound: COC(=O)c1ccc(OCCN2CCN(c3cc(Cl)nnc3Cl)CC2)nc1 [Example 32, 6-{2-[4-(3,6-dichloropyridazin-4-yl)piperazin-1-yl]-ethoxy}-nicotinic acid methyl ester]
- effects of the drug for preventing cells from being phagocytized, cell protection rate (Rhinovirus-3(HRV-3) [2]): better effects

Compound: Cc1cccc(C)c1OCCN1CCN(c2cc(Cl)nnc2Cl)CC1 [Example 4, 3,6-dichloro-4-{4-[2-(2,6-dimethyl-phenoxyethyl)]-piperazin-1-yl}pyridazine]
- effects of the drug for preventing cells from being phagocytized, cell protection rate (Rhinovirus-3(HRV-3) [2]): better effects
